# Data taken from patent US20060235076A1, “Medicinal composition for treating infection with drug-resistant staphylococcus aureus” (priority 2003, published 2006).
# System: MRSA
# Assay: Potentiating effect of galloyl quinic acid derivatives for the antibacterial activity of oxacillin (agar plate dilution method, MIC)
# Type: cell-based, Staphylococcus aureus
# Description: According to the agar plate dilution method defined by Japan Society of Chemotherapy, MIC (Minimum inhibitory concentration) was determined. CAMHA was prepared by adding 50 mg/l of Ca-ion, 25 mg/l of Mg-ion, and 2% of NaCl to Mueller-Hinton II Agar (MHA), and it was used as a medium for use in the measurement of sensitivity. The bacterial liquid was incubated at 37° C. overnight and diluted to 10^6 CFU/ml with saline.
# It was confirmed that the known substances shown below were contained in “Tara” and their MICs were determined as described in example 2 with respect to the effects of the combination use with oxacillin
# [1] = ATCC 6538, with 12.5 μg/ml of compound
# [2] = ATCC 6538, with 25 μg/ml of compound
# [3] = ATCC 6538, with 50 μg/ml of compound
# [4] = MRSA 1, with 12.5 μg/ml of compound
# [5] = MRSA 1, with 25 μg/ml of compound
# [6] = MRSA 1, with 50 μg/ml of compound
# [7] = MRSA 2, with 12.5 μg/ml of compound
# [8] = MRSA 2, with 25 μg/ml of compound
# [9] = MRSA 2, with 50 μg/ml of compound
# [10] = MRSA 3, with 12.5 μg/ml of compound
# [11] = MRSA 3, with 25 μg/ml of compound
# [12] = MRSA 3, with 50 μg/ml of compound
# [13] = MRSA 4, with 12.5 μg/ml of compound
# [14] = MRSA 4, with 25 μg/ml of compound
# [15] = MRSA 4, with 50 μg/ml of compound
# [16] = MRSA 5, with 12.5 μg/ml of compound
# [17] = MRSA 5, with 25 μg/ml of compound
# [18] = MRSA 5, with 50 μg/ml of compound
# [19] = MRSA 6, with 12.5 μg/ml of compound
# [20] = MRSA 6, with 25 μg/ml of compound
# [21] = MRSA 6, with 50 μg/ml of compound
# [22] = MRSA 7, with 12.5 μg/ml of compound
# [23] = MRSA 7, with 25 μg/ml of compound
# [24] = MRSA 7, with 50 μg/ml of compound
# [25] = MRSA 8, with 12.5 μg/ml of compound
# [26] = MRSA 8, with 25 μg/ml of compound
# [27] = MRSA 8, with 50 μg/ml of compound
# [28] = MRSA 9, with 12.5 μg/ml of compound
# [29] = MRSA 9, with 25 μg/ml of compound
# [30] = MRSA 9, with 50 μg/ml of compound
# [31] = MRSA 10, with 12.5 μg/ml of compound
# [32] = MRSA 10, with 25 μg/ml of compound
# [33] = MRSA 10, with 50 μg/ml of compound
# [34] = MRSA 12, with 12.5 μg/ml of compound
# [35] = MRSA 12, with 25 μg/ml of compound
# [36] = MRSA 12, with 50 μg/ml of compound
# [37] = MRSA 16, with 12.5 μg/ml of compound
# [38] = MRSA 16, with 25 μg/ml of compound
# [39] = MRSA 16, with 50 μg/ml of compound
# [40] = MRSA 17, with 12.5 μg/ml of compound
# [41] = MRSA 17, with 25 μg/ml of compound
# [42] = MRSA 17, with 50 μg/ml of compound
# [43] = MRSA 18, with 12.5 μg/ml of compound
# [44] = MRSA 18, with 25 μg/ml of compound
# [45] = MRSA 18, with 50 μg/ml of compound
# [46] = MRSA 20, with 12.5 μg/ml of compound
# [47] = MRSA 20, with 25 μg/ml of compound
# [48] = MRSA 20, with 50 μg/ml of compound
# [49] = MRSA 21, with 12.5 μg/ml of compound
# [50] = MRSA 21, with 25 μg/ml of compound
# [51] = MRSA 21, with 50 μg/ml of compound
# [52] = MRSA 22, with 12.5 μg/ml of compound
# [53] = MRSA 22, with 25 μg/ml of compound
# [54] = MRSA 22, with 50 μg/ml of compound
# [55] = MRSA COL, with 12.5 μg/ml of compound
# [56] = MRSA COL, with 25 μg/ml of compound
# [57] = MRSA COL, with 50 μg/ml of compound
# [58] = MSSA 1003, with 12.5 μg/ml of compound
# [59] = MSSA 1003, with 25 μg/ml of compound
# [60] = MSSA 1003, with 50 μg/ml of compound
# [61] = MSSA 1010, with 12.5 μg/ml of compound
# [62] = MSSA 1010, with 25 μg/ml of compound
# [63] = MSSA 1010, with 50 μg/ml of compound
# [64] = MSSA 1032, with 12.5 μg/ml of compound
# [65] = MSSA 1032, with 25 μg/ml of compound
# [66] = MSSA 1032, with 50 μg/ml of compound
# [67] = RN4220, with 12.5 μg/ml of compound
# [68] = RN4220, with 25 μg/ml of compound
# [69] = RN4220, with 50 μg/ml of compound
smiles,measurement,setting,value
COC(=O)C1(O)CC(OC(=O)c2cc(O)c(O)c(O)c2)C(OC(=O)c2cc(O)c(O)c(O)c2)C(OC(=O)c2cc(O)c(O)c(O)c2)C1 (stereo not drawn) [compound 2],Oxacillin MIC,[1],<0.5 mg/L
same,Oxacillin MIC,[2],<0.5 mg/L
same,Oxacillin MIC,[3],<0.5 mg/L
same,Oxacillin MIC,[4],>256 mg/L
same,Oxacillin MIC,[5],>256 mg/L
same,Oxacillin MIC,[6],>256 mg/L
same,Oxacillin MIC,[7],256 mg/L
same,Oxacillin MIC,[8],32 mg/L
same,Oxacillin MIC,[9],32 mg/L
same,Oxacillin MIC,[10],64 mg/L
same,Oxacillin MIC,[11],32 mg/L
same,Oxacillin MIC,[12],32 mg/L
same,Oxacillin MIC,[13],256 mg/L
same,Oxacillin MIC,[14],256 mg/L
same,Oxacillin MIC,[15],256 mg/L
same,Oxacillin MIC,[16],>256 mg/L
same,Oxacillin MIC,[17],256 mg/L
same,Oxacillin MIC,[18],256 mg/L
same,Oxacillin MIC,[19],128 mg/L
same,Oxacillin MIC,[20],32 mg/L
same,Oxacillin MIC,[21],64 mg/L
same,Oxacillin MIC,[22],256 mg/L
same,Oxacillin MIC,[23],128 mg/L
same,Oxacillin MIC,[24],64 mg/L
same,Oxacillin MIC,[25],64 mg/L
same,Oxacillin MIC,[26],64 mg/L
same,Oxacillin MIC,[27],64 mg/L
same,Oxacillin MIC,[28],>256 mg/L
same,Oxacillin MIC,[29],256 mg/L
same,Oxacillin MIC,[30],128 mg/L
same,Oxacillin MIC,[31],64 mg/L
same,Oxacillin MIC,[32],64 mg/L
same,Oxacillin MIC,[33],64 mg/L
same,Oxacillin MIC,[34],256 mg/L
same,Oxacillin MIC,[35],128 mg/L
same,Oxacillin MIC,[36],256 mg/L
same,Oxacillin MIC,[37],>255 mg/L
same,Oxacillin MIC,[38],256 mg/L
same,Oxacillin MIC,[39],256 mg/L
same,Oxacillin MIC,[40],128 mg/L
same,Oxacillin MIC,[41],256 mg/L
same,Oxacillin MIC,[42],256 mg/L
same,Oxacillin MIC,[43],256 mg/L
same,Oxacillin MIC,[44],128 mg/L
same,Oxacillin MIC,[45],128 mg/L
same,Oxacillin MIC,[46],8 mg/L
same,Oxacillin MIC,[47],2 mg/L
same,Oxacillin MIC,[48],4 mg/L
same,Oxacillin MIC,[49],32 mg/L
same,Oxacillin MIC,[50],8 mg/L
same,Oxacillin MIC,[51],16 mg/L
same,Oxacillin MIC,[52],32 mg/L
same,Oxacillin MIC,[53],16 mg/L
same,Oxacillin MIC,[54],32 mg/L
same,Oxacillin MIC,[55],256 mg/L
same,Oxacillin MIC,[56],128 mg/L
same,Oxacillin MIC,[57],128 mg/L
same,Oxacillin MIC,[58],<0.5 mg/L
same,Oxacillin MIC,[59],<0.5 mg/L
same,Oxacillin MIC,[60],<0.5 mg/L
same,Oxacillin MIC,[61],<0.5 mg/L
same,Oxacillin MIC,[62],<0.5 mg/L
same,Oxacillin MIC,[63],<0.5 mg/L
same,Oxacillin MIC,[64],<0.5 mg/L
same,Oxacillin MIC,[65],<0.5 mg/L
same,Oxacillin MIC,[66],<0.5 mg/L
same,Oxacillin MIC,[67],<0.5 mg/L
same,Oxacillin MIC,[68],<0.5 mg/L
same,Oxacillin MIC,[69],<0.5 mg/L
O=C(OC1CC(O)(C(=O)O)CC(O)C1OC(=O)c1cc(O)c(O)c(O)c1)c1cc(O)c(O)c(O)c1 (stereo not drawn) [compound 4],Oxacillin MIC,[1],<0.5 mg/L
same,Oxacillin MIC,[2],<0.5 mg/L
same,Oxacillin MIC,[3],<0.5 mg/L
same,Oxacillin MIC,[4],>256 mg/L
same,Oxacillin MIC,[5],>256 mg/L
same,Oxacillin MIC,[6],>256 mg/L
same,Oxacillin MIC,[7],>256 mg/L
same,Oxacillin MIC,[8],256 mg/L
same,Oxacillin MIC,[9],256 mg/L
same,Oxacillin MIC,[10],256 mg/L
same,Oxacillin MIC,[11],256 mg/L
same,Oxacillin MIC,[12],128 mg/L
same,Oxacillin MIC,[13],>256 mg/L
same,Oxacillin MIC,[14],>256 mg/L
same,Oxacillin MIC,[15],>256 mg/L
same,Oxacillin MIC,[16],>256 mg/L
same,Oxacillin MIC,[17],≅256 μg/ml
same,Oxacillin MIC,[18],>256 mg/L
same,Oxacillin MIC,[19],256 mg/L
same,Oxacillin MIC,[20],256 mg/L
same,Oxacillin MIC,[21],128 mg/L
same,Oxacillin MIC,[22],>256 mg/L
same,Oxacillin MIC,[23],>256 mg/L
same,Oxacillin MIC,[24],>256 mg/L
same,Oxacillin MIC,[25],256 mg/L
same,Oxacillin MIC,[26],128 mg/L
same,Oxacillin MIC,[27],128 mg/L
same,Oxacillin MIC,[28],>256 mg/L
same,Oxacillin MIC,[29],>256 mg/L
same,Oxacillin MIC,[30],>256 mg/L
same,Oxacillin MIC,[31],128 mg/L
same,Oxacillin MIC,[32],128 mg/L
same,Oxacillin MIC,[33],128 mg/L
same,Oxacillin MIC,[34],>256 mg/L
same,Oxacillin MIC,[35],>256 mg/L
same,Oxacillin MIC,[36],>256 mg/L
same,Oxacillin MIC,[37],>256 mg/L
same,Oxacillin MIC,[38],>256 mg/L
same,Oxacillin MIC,[39],>256 mg/L
same,Oxacillin MIC,[40],256 mg/L
same,Oxacillin MIC,[41],256 mg/L
same,Oxacillin MIC,[42],256 mg/L
same,Oxacillin MIC,[43],>256 mg/L
same,Oxacillin MIC,[44],>256 mg/L
same,Oxacillin MIC,[45],>256 mg/L
same,Oxacillin MIC,[46],32 mg/L
same,Oxacillin MIC,[47],16 mg/L
same,Oxacillin MIC,[48],16 mg/L
same,Oxacillin MIC,[49],128 mg/L
same,Oxacillin MIC,[50],128 mg/L
same,Oxacillin MIC,[51],64 mg/L
same,Oxacillin MIC,[52],64 mg/L
same,Oxacillin MIC,[53],64 mg/L
same,Oxacillin MIC,[54],64 mg/L
same,Oxacillin MIC,[55],>256 mg/L
same,Oxacillin MIC,[56],>256 mg/L
same,Oxacillin MIC,[57],>256 mg/L
same,Oxacillin MIC,[58],<0.5 mg/L
same,Oxacillin MIC,[59],<0.5 mg/L
same,Oxacillin MIC,[60],<0.5 mg/L
same,Oxacillin MIC,[61],<0.5 mg/L
same,Oxacillin MIC,[62],<0.5 mg/L
same,Oxacillin MIC,[63],<0.5 mg/L
same,Oxacillin MIC,[64],<0.5 mg/L
same,Oxacillin MIC,[65],<0.5 mg/L
same,Oxacillin MIC,[66],<0.5 mg/L
same,Oxacillin MIC,[67],<0.5 mg/L
same,Oxacillin MIC,[68],<0.5 mg/L
same,Oxacillin MIC,[69],<0.5 mg/L
